Assay results reported in US20110190503A1, “Thiazolopyridin-2-yloxy-phenyl and thiazolopyrazin-2-yloxy-phenyl amines as modulators of leukotriene A4 hydrolase” (Janssen Pharmaceutical NV, priority 2008, published 2011).
Structures can show the parent of a compound that is named as a salt.

biological target: T1, recombinant human LTA4 hydrolase (rhLTA4H) (Homo sapiens, UniProt P09960); experiment: Recombinant human LTA4 hydrolase assay for LTA4 hydrolase inhibitor activity; assay type: biochemical; details: rhLTA4H, LTA4 substrate, LTB4 by immunoassay; single determination or average; read-out: IC50
T1 construct: made in house; host or cells: Spodoptera frugiperda (Sf-9) cells, recombinant baculovirus (pFastBac1)
T1 sequence (P09960 1-611): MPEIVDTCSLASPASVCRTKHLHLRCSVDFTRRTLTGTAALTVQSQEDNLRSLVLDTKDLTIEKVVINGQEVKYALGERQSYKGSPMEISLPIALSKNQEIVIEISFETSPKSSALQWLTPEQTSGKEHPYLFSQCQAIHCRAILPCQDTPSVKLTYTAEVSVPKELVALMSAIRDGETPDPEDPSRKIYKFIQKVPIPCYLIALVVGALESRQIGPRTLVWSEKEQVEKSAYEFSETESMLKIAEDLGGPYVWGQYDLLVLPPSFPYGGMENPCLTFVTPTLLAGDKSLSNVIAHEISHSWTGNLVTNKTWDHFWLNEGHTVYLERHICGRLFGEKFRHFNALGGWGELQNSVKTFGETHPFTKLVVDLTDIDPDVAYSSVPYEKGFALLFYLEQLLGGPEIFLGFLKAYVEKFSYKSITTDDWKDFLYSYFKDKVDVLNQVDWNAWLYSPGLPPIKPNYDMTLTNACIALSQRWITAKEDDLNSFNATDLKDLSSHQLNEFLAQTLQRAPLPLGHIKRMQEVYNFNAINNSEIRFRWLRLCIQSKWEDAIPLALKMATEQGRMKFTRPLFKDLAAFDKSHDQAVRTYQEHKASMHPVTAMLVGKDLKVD
Description: Assay 1: Recombinant Human LTA4 Hydrolase Assay for LTA4 Hydrolase Inhibitor Activity
Compounds of the present invention were tested for LTA4 hydrolase inhibitor activity against recombinant human LTA4 hydrolase (rhLTA4H). Vectors were prepared and used to express rhLTA4H essentially as follows: LTA4 hydrolase encoding DNA was amplified by polymerase chain reaction (PCR) using a human placental cDNA library as a template. […] The amplified 1.9 kb DNA fragment encoding LTA4 hydrolase was isolated and cloned into the pFastBac1 vector (Invitrogen). Recombinant baculovirus was generated as described by the manufacturer, and used to infect Spodoptera frugiperda (Sf-9) cells. […] The purified enzyme solution was adjusted to contain 0.29 mg/mL LTA4 hydrolase, 50 mM Tris (pH 8.0), 150 mM NaCl, 5 mM dithiothreitol, 50% glycerol, and EDTA-free Complete protease inhibitor cocktail (Roche).
LTA4 substrate was prepared from the methyl ester of LTA4 (Cayman Chemical) by treatment with 67 equiv of NaOH under nitrogen at rt for 40 min. The LTA4 substrate in its free acid form was kept frozen at −80° C. until needed. Each compound was diluted to different concentrations in assay buffer (from Assay Designs) containing 10% DMSO. A 25-μL aliquot of each compound dilution was incubated for 10 min at rt with an equal volume of assay buffer containing 10 ng of recombinant human LTA4H. The solution was then adjusted to 200 μL with assay buffer. […] Each reaction was carried out at rt for 30 min. The reaction was stopped by diluting 10 μL of the reaction mixture with 200 μL of assay buffer. LTB4 was quantified in the diluted sample by a commercially available enzyme-linked immunoassay (Cayman Chemical Co.), as recommended by the manufacturer. Positive controls, under essentially identical conditions but without addition of an inhibitor compound, and negative controls, containing all assay components except enzyme, were routinely run in each experiment. IC50 values were determined by nonlinear regression of the activity data at different compound concentrations using Graphpad Prism 4.0, one site binding competition.
The values presented here are the result of a single determination or an average of two or more determinations, as indicated in parentheses following each value. For compounds tested three or more times, the average value is followed by the standard deviation

| Structure (SMILES) | IC50 |
| --- | --- |
| c1cc2sc(Oc3ccc(CN4CCCCC4)cc3)nc2cn1 [Example 133, 2-[4-(Piperidin-1-ylmethyl)phenoxy][1,3]thiazolo[4,5-c]pyridine] | 1870 nM |
| Clc1ccc(SC2CCN(CCOc3ccc(Oc4nc5ncccc5s4)cc3)CC2)cc1 [Example 136, 2-[4-(2-{4-[(4-Chlorophenyl)sulfanyl]piperidin-1-yl}ethoxy)phenoxy][1,3]thiazolo[4,5-b]pyridine] | 427 nM |
| O=C1CCCN1C1CCN(CCOc2ccc(Oc3nc4ccncc4s3)cc2)CC1 [Example 144, 1-(1-{2-[4-([1,3]Thiazolo[5,4-c]pyridin-2-yloxy)phenoxy]ethyl}piperidin-4-yl)pyrrolidin-2-one] | 350 nM |
| Cc1cnc2nc(Oc3ccc(OCCN4CCC(C(=O)N5CCOCC5)CC4)cc3)sc2c1 [Example 145, 6-Methyl-2-(4-{2-[4-(morpholin-4-ylcarbonyl)piperidin-1-yl]ethoxy}phenoxy)[1,3]thiazolo[4,5-b]pyridine] | 275 nM |
| O=C(c1ccco1)N1CCN(CCOc2ccc(Oc3nc4ncc(Cl)cc4s3)cc2)CC1 [Example 147, 6-Chloro-2-(4-{2-[4-(furan-2-ylcarbonyl)piperazin-1-yl]ethoxy}phenoxy)[1,3]thiazolo[4,5-b]pyridine] | 252 nM |
| c1cnc2sc(Oc3ccc(OCCN4CCOCC4)cc3)nc2n1 [Example 150, 2-[4-(2-Morpholin-4-ylethoxy)phenoxy][1,3]thiazolo[4,5-b]pyrazine] | 602 nM |
| CS(=O)(=O)N1C[C@H]2C[C@@H]1CN2CCOc1ccc(Oc2nc3ccncc3s2)cc1 [Example 151, 2-(4-{2-[(1R,4R)-5-(Methylsulfonyl)-2,5-diazabicyclo[2.2.1]hept-2-yl]ethoxy}phenoxy)[1,3]thiazolo[5,4-c]pyridine] | 367 nM |
| CN1CCCN(CCOc2ccc(Oc3nc4cccnc4s3)cc2)CC1 [Example 152, 2-{4-[2-(4-Methyl-1,4-diazepan-1-yl)ethoxy]phenoxy}[1,3]thiazolo[5,4-b]pyridine] | 498 nM |
| CN(CCCN1CCCC1=O)CCOc1ccc(Oc2nc3ncc(Cl)cc3s2)cc1 [Example 155, 1-{3-[(2-{4-[(6-Chloro[1,3]thiazolo[4,5-b]pyridin-2-yl)oxy]phenoxy}ethyl)(methyl)amino]propyl}pyrrolidin-2-one] | 329 nM |
| OCCCN(CCOc1ccc(Oc2nc3ccncc3s2)cc1)CC1CC1 [Example 156, 3-[(Cyclopropylmethyl){2-[4-([1,3]thiazolo[5,4-c]pyridin-2-yloxy)phenoxy]ethyl}amino]propan-1-ol] | 494 nM |
| CC(C)(CO)NC(=O)C1CCN(CCOc2ccc(Oc3nc4cnccc4s3)cc2)CC1 [Example 161, N-(2-Hydroxy-1,1-dimethylethyl)-1-(2-{[4-([1,3]thiazolo[4,5-c]pyridin-2-yloxy)phenyl]oxy}ethyl)piperidine-4-carboxamide] | 535 nM |
| c1cnc(N2CCN(Cc3ccc(Oc4nc5nccnc5s4)cc3)CC2)nc1 [Example 167, 2-({4-[(4-Pyrimidin-2-ylpiperazin-1-yl)methyl]phenyl}oxy)[1,3]thiazolo[4,5-b]pyrazine] | 432 nM |
| Cc1ccnc2nc(Oc3ccc(CN4CCN(c5ccncc5)CC4)cc3)sc12 [Example 168, 7-Methyl-2-({4-[(4-pyridin-4-ylpiperazin-1-yl)methyl]phenyl}oxy)[1,3]thiazolo[4,5-b]pyridine] | 647 nM |
| O=C(Cc1cccs1)N1CCN(Cc2ccc(Oc3nc4nccnc4s3)cc2)CC1 [Example 173, 2-[(4-{[4-(2-Thienylacetyl)piperazin-1-yl]methyl}phenyl)oxy][1,3]thiazolo[4,5-b]pyrazine] | 388 nM |
| CN(Cc1ccc(Oc2nc3ccncc3s2)cc1)C1CCCCC1 [Example 175, N-Methyl-N-[4-([1,3]thiazolo[5,4-c]pyridin-2-yloxy)benzyl]cyclohexanamine] | 791 nM |
| CC(=O)N1CCN(CCc2ccc(Oc3nc4ccncc4s3)cc2)CC1 [Example 176, 2-{4-[2-(4-Acetylpiperazin-1-yl)ethyl]phenoxy}[1,3]thiazolo[5,4-c]pyridine] | 835 nM |
| O=C1CCN(CCc2ccc(Oc3nc4nccnc4s3)cc2)CCN1 [Example 177, 1-{2-[4-([1,3]Thiazolo[4,5-b]pyrazin-2-yloxy)phenyl]ethyl}-1,4-diazepan-5-one] | 624 nM |

Molecules with a lower IC50, results first:

| IC50 | Structure (SMILES) |
| --- | --- |
| 41 nM | c1cnc2nc(Oc3ccc(OCCNC4CC4)cc3)sc2c1 [Example 139, N-{2-[4-([1,3]Thiazolo[4,5-b]pyridin-2-yloxy)phenoxy]ethyl}cyclopropanamine] |
| 138 nM | Cc1cnc2nc(Oc3ccc(OCCN4CCC(NC(=O)C(C)C)CC4)cc3)sc2c1 [Example 140, 2-Methyl-N-[1-(2-{4-[(6-methyl[1,3]thiazolo[4,5-b]pyridin-2-yl)oxy]phenoxy}ethyl)piperidin-4-yl]propanamide] |
| 193 nM | Cc1ccnc2nc(Oc3ccc(OCCN4CCN(C(=O)c5ccncc5)CC4)cc3)sc12 [Example 143, 7-Methyl-2-(4-{2-[4-(pyridin-4-ylcarbonyl)piperazin-1-yl]ethoxy}phenoxy)[1,3]thiazolo[4,5-b]pyridine] |
| 114 nM | OCCN(CCOc1ccc(Oc2nc3cccnc3s2)cc1)CC1CC1 [Example 157, 2-[(Cyclopropylmethyl){2-[4-([1,3]thiazolo[5,4-b]pyridin-2-yloxy)phenoxy]ethyl}amino]ethanol] |
| 194 nM | Cc1ccnc2nc(Oc3ccc(OCCN4CCC(O)(c5ccccn5)CC4)cc3)sc12 [Example 158, 1-(2-{4-[(7-Methyl[1,3]thiazolo[4,5-b]pyridin-2-yl)oxy]phenoxy}ethyl)-4-pyridin-2-ylpiperidin-4-ol] |
| 45 nM | FC(F)(F)C1CCN(CCOc2ccc(Oc3nc4cnccc4s3)cc2)CC1 [Example 164, 2-{[4-({2-[4-(Trifluoromethyl)piperidin-1-yl]ethyl}oxy)phenyl]oxy}[1,3]thiazolo[4,5-c]pyridine] |
| 53 nM | CNC(=O)C1CCN(CCOc2ccc(Oc3nc4nccc(C)c4s3)cc2)CC1 [Example 165, N-Methyl-1-[2-({4-[(7-methyl[1,3]thiazolo[4,5-b]pyridin-2-yl)oxy]phenyl}oxy)ethyl]piperidine-4-carboxamide] |
| 114 nM | Cc1ccnc2nc(Oc3ccc(OCCN4[C@@H]5CC[C@H]4C[C@@H](NC(=O)CN)C5)cc3)sc12 [Example 166, meso-N-{(3-endo)-8-[2-({4-[(7-Methyl[1,3]thiazolo[4,5-b]pyridin-2-yl)oxy]phenyl}oxy)ethyl]-8-azabicyclo[3.2.1]oct-3-yl}glycinamide hydrochloride] |
| 29 nM | CC(=O)N1[C@@H]2CC[C@H]1C[C@H](NCc1ccc(Oc3nc4ncccc4s3)cc1)C2 [Example 170, meso-(3-exo)-8-Acetyl-N-{[4-([1,3]thiazolo[4,5-b]pyridin-2-yloxy)phenyl]methyl}-8-azabicyclo[3.2.1]octan-3-amine] |
| 42 nM | NC(=O)N1[C@@H]2CC[C@H]1CN(Cc1ccc(Oc3nc4ncccc4s3)cc1)C2 [Example 171, meso-3-{[4-([1,3]Thiazolo[4,5-b]pyridin-2-yloxy)phenyl]methyl}-3,8-diazabicyclo[3.2.1]octane-8-carboxamide] |
| 26 nM | Cc1cnc2nc(Oc3ccc(CN4CCC(C(=O)N(C)C)CC4)cc3)sc2c1 [Example 172, N,N-Dimethyl-1-({4-[(6-methyl[1,3]thiazolo[4,5-b]pyridin-2-yl)oxy]phenyl}methyl)piperidine-4-carboxamide] |
| 94 nM | CCN(CCc1ccc(Oc2nc3cccnc3s2)cc1)C1CC1 [Example 174, N-Ethyl-N-{2-[4-([1,3]thiazolo[5,4-b]pyridin-2-yloxy)phenyl]ethyl}cyclopropanamine] |
